Experimental data from US20180105793A1, “DEVICE WITH MULTIPLE MICROENVIRONMENTS AND METHODS THEREOF” (WASHINGTON UNIVERSITY, priority 2016, published 2018).
Entries after “also recorded” stand apart in the source; their conditions may differ.

Legend:
MCF10A cells [1] = experiment: Collective cell migration assay on modular polyacrylamide (mPA) dual-stiffness substrate; assay type: cell-based, Human
Experimental: Human mammary epithelial non-tumorigenic MCF10A cells were cultured in DMEM-F12 (GE Healthcare Life Sciences), supplemented with 5% horse serum (Invitrogen), 20 ng/mL epidermal growth factor (EGF, Miltenyi Biotec Inc), […] hydrocortisone (Sigma-Aldrich), 100 ng/mL cholera toxin (Sigma-Aldrich), 10 μg/mL insulin (Sigma-Aldrich), and 1% (v/v) penicillin-streptomycin (Sigma-Aldrich). Tumorigenic mammary epithelial MCF7 cells were grown in DMEM (Sigma-Aldrich) containing 10% fetal bovine serum (FBS), 1% (v/v) penicillin-streptomycin (Sigma-Aldrich), and 1% non-essential amino acids (0.1 mM). Human epidermoid carcinoma A431 cells were grown in DMEM (Sigma-Aldrich) containing 10% fetal bovine serum (FBS), 1% (v/v) penicillin-streptomycin (Sigma-Aldrich), 1% sodium pyruvate (Sigma-Aldrich), 1% sodium bicarbonate (Sigma-Aldrich), and 1% non-essential amino acids (0.1 mM). A PDMS stencil was designed and fabricated with a rectangular opening in the center, restricting the culture of epithelial monolayer within the central module (primary ECM) of mPA substrate (see e.g., FIG. 13A). PDMS stencils were air-dried, cleaned with 70% ethanol, and sterilized under UV light for 2 h. Afterwards, stencils were passivated overnight, with a sterile solution of 1% Pluronic and 1% Bovine serum albumin (BSA) in Phosphate buffered saline (PBS) to avoid cell adhesion, and carefully positioned on the PA gels. Cell suspension with 2×10^4 cells was dispensed into the PDMS reservoir covering the primary ECM region and left to grow for a prescribed duration of priming (1, 2, or 3 days) at 37° C. in a 5% CO2 humidified incubator. After this incubation period, the PDMS stencil was lifted off to allow cell sheet to migrate into the adjoining secondary ECM. Additional media was added to each well. For proliferation inhibition experiments, cells were treated with 2 mM thymidine (Sigma-Aldrich) after at least 6 h of cell seeding, to allow adequate attachment of cells to the substrate. For calcium chelation experiments, cells were incubated with 4 mM of EGTA (Sigma-Aldrich) after 3-day priming. […] Subsequently, coordinates of the leading edge were imported into a custom-made program in MATLAB and its advancement was calculated by averaging the distance of each point on the leading edge from the primary-secondary ECM interface. […] Cell migration tracks were subsequently analyzed to obtain migration speed and velocity angle distribution. Migration speed was calculated as a ratio between the sum of distances traveled by the cell between each time point and the total time. For each time interval, the angle between instantaneous velocity vector and the x axis was calculated and plotted the angle distribution for the entire migration tracking period.

MCF10A cells [2] = experiment: Immunofluorescent staining for E-cadherin (cell-cell junctions); assay type: cell-based, Human; details: 4 mM EGTA vs untreated

Row | Compound | memory-dependent migration of the leading edge (MCF10A cells [1]; MCF10A monolayer, 4 mM EGTA after 3-day priming) | cell-cell communication / cell-cell junctions (E-cadherin images) (MCF10A cells [2]) | trend of mechanical memory-dependent migration (MCF10A cells [1]; MCF10A monolayer, 2 mM thymidine (proliferation inhibition)) | cell migration speeds (leading edge) (MCF10A cells [1]; MCF10A monolayer, 2 mM thymidine (proliferation inhibition), secondary ECM after priming, vs untreated cells) | cell spreading (spreading area of individual cells in the secondary ECM) (MCF10A cells [1]; MCF10A, 2 mM thymidine, with vs without proliferation inhibition)
1 | O=C(O)CN(CCOCCOCCN(CC(=O)O)CC(=O)O)CC(=O)O [EGTA] | preserved | disrupts cell-cell communication; also recorded: dysfunctional cell-cell junctions | – | – | –
2 | Cc1cn([C@H]2C[C@H](O)[C@@H](CO)O2)c(=O)[nH]c1=O [thymidine] | – | – | held true | increased | increased spreading
